# Paper PMC3432061, “Biochemical and Mass Spectrometric Characterization of Human N-Acylethanolamine-Hydrolyzing Acid Amidase Inhibition” (PLoS ONE, 2012)
# Key:
# hNAAA [1] = target: T1, hNAAA (Homo sapiens, UniProt Q02083); experiment: MALDI-TOF MS and MS/MS analysis of tryptic digest of inhibitor treated hNAAA; conditions: 10-fold molar excess of compound, 37°C, 2 hours, pH 4.5
# T1 construct: the active mature form of the enzyme is a heterodimer, consisting of a non-covalent complex of the α- and β-subunits; hexa-histidine (C); made in house; host or cells: HEK293 (stably transfected)
# T1 sequence (Q02083 126-359 limits assumed): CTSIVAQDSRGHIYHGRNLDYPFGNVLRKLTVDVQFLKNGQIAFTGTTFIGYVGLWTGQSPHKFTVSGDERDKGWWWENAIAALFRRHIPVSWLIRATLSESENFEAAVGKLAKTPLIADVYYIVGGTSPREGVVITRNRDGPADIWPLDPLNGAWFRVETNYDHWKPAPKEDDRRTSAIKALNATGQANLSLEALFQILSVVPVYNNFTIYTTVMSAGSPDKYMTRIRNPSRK
# T1 sequence (Q02083 29-125 limits assumed): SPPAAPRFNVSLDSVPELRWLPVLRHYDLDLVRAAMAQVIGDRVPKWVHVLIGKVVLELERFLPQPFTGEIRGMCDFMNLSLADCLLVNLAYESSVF
# Method: To 10 µg (0.2 nmol) of purified and activated NAAA in 18 µL of 100 mM citrate-sodium phosphate buffer (pH 4.5) 2 µL of a DMSO solution containing 2 nmol of the compound of interest were added or 2 µL DMSO. The inhibitor and DMSO treated enzyme solutions were incubated at 37°C for 2 hours and then desalted prior to digestion. These were desalted by re-concentrating 3 times to original volume after 25 fold dilution with 50 mM ammonium bicarbonate buffer, pH 8.0, using 10 kDa membrane Ultra-0.5 Centrifugal Filters (Millipore). The NAAA samples were incubated overnight at 37°C with MS-grade trypsin (“Trypsin Gold”, Promega) at a NAAA:trypsin mass to mass ratio of 100∶1. The tryptic digested NAAA was analyzed immediately or frozen at −80°C for future analysis.
# 0.5 µL of the trypsin digested NAAA was mixed with 0.5 µL α-cyano-4-hydroxycinnaminic acid matrix solution (5 mg/mL dissolved in 50% acetonitrile, 50% water, and 0.1% trifluoroacetic acid) and spotted onto an Opti-TOF 384-well plate insert. MALDI-TOF MS spectra were acquired on a 4800 MALDI TOF/TOF mass spectrometer (Applied Biosystems, Foster City, CA) fitted with a 200-Hz solid state UV laser (wavelength 355 nm). The spectra of the peptides were acquired in reflectron mode. The conditions used for the MS experiments and instrument calibration were performed as described by Zvonok et. al.
# hNAAA [2] = target: T1, hNAAA; experiment: 8 point radioactive assay, hydrolysis of [14C]N-palmitoylethanolamine by purified hNAAA; format: biochemical; conditions: 2 hours preincubation, PEA 25 µM
# Method: (§1) To set up 8 point fluorescent and radioactive assays for each point, the compound in 45 µL DMSO and purified activated NAAA (final enzyme concentration of 0.25 µg/mL) in 810 µL of NAAA assay buffer were incubated for 2 hours in order for the covalent compounds to reach full inhibition. For the fluorescent assays, 190 µL of each of the above samples (in triplicate) were transferred to a 96 well plate, followed by addition of 10 µL of a PAMCA stock solution in DMSO for a final PAMCA concentration of 10 µM. After 5 minutes of agitation on a shaking plate, the reaction was allowed to proceed at 37°C for 30 minutes and enzyme activity was monitored and calculated as previously described. The complete description of the novel fluorescent 8 point assay to determine the IC50 value for compounds inhibiting hNAAA activity will be detailed elsewhere.
# The 8 point radioactive assays, similar to that described by Saturnino et. al., [10] were performed by taking 95 µL of the enzyme-compound solution described above and adding a 5 µL solution of [^1,2 −14C]N-palmitoylethanolamine (10,000 c.p.m./sample) in DMSO, with a final PEA concentration of 25 µM. The reaction was performed for 30 minutes at 37°C and terminated by addition of 200 µL chloroform/methanol (1∶1, v/v). The aqueous layer containing the [^1,2 −14C]Ethanolamine was quantified by reading with a 1450 Microbeta Walluc Trilux Liquid Scintillation and Luminescence Counter. Inhibition constants were calculated using pro Fit software (Quantum Soft, Uetikon am See, Switzerland) and a Levenberg-Marquardt algorithm.
# hNAAA [3] = target: T1, hNAAA; experiment: Rapid dilution experiment with hNAAA (reversibility); format: biochemical; conditions: AM6701: 100 nM for 120 min, twenty-fold dilution to 5 nM, up to 24 h
# hNAAA [4] = target: T1, hNAAA; experiment: 8 point fluorescent assay, hydrolysis of PAMCA by purified hNAAA; format: biochemical; conditions: for IC50: purified hNAAA, 2 hours preincubation, fluorescent assay, PAMCA 10 µM
# Method: We previously described the fluorogenic substrate N-(4-methyl coumarin)palmitamide (PAMCA), which is hydrolyzed by NAAA to the fluorescent compound 7-amino-4-methyl coumarin (AMC) and palmitic acid. For hNAAA inhibition we conducted three point concentration assays with compounds to determine their potencies and ranges of enzyme inhibition. Purified activated NAAA (final concentration of 0.25 µg/mL) was incubated in assay buffer made up to a total volume of 180 µL, followed by addition of the compound dissolved in 10 µL DMSO (along with DMSO neat for the control sample) with the final concentrations for each compound of 1, 10, and 100 µM, in triplicate on a 96 well plate. These samples were allowed to incubate for 15 min at room temperature and then 10 µL of a PAMCA stock solution in DMSO (final PAMCA concentration 10 µM) was added. After 5 minutes of agitation on a shaking plate, the reaction was allowed to proceed at 37°C for 30 minutes and enzyme activity was monitored and calculated as previously described.
# as §1
# hNAAA [5] = target: T1, hNAAA; experiment: Fluorometric assay to determine kinact/Ki for irreversible hNAAA inhibition; format: biochemical; conditions: for kinact: PAMCA 12.4 µM = 2×Km, no preincubation, read for 120 minutes; for kinact/K I: second order rate constant
# Method: The k inact and K I values for covalent inhibitors were determined similar to Mileni et. al. […] The data for each inhibitor concentration ([I]) were fit to a first order equation (Eq. 1) shown below using KaleidaGraph (Synergy Software, Reading, PA) in order to determine k observed (k obs), where Ft is the fluorescence at time t, F 0 is the fluorescence at t = infinite time, F 1 is the total fluorescence change, and k obs is the first order rate constant for enzyme inactivation. To determine the inhibitor dissociation constant (K I) and the first order rate constant for enzyme inactivation at infinite inhibitor concentration (k inact), the k obs values for each [I] obtained above were fit to a curve using pro Fit software and a Levenberg-Marquardt algorithm according to Eq. 2, which simplifies to Eq. 3 at [S] = 2×K m as used in this experiment. [drawing 1] (1) [drawing 2] (2) [drawing 3] (3)
# FAAH = tested on: FAAH; design: method as in PMID 22270809; conditions: cited from earlier work
# hNAAA [6] = target: T1, hNAAA; experiment: Lineweaver-Burk (double reciprocal) plot of hNAAA inhibition; format: biochemical
# hMGL = target: T2, hMGL (Homo sapiens, UniProt Q99685); experiment: hMGL inhibition (selectivity); format: biochemical
# T2 sequence (Q99685 1-303): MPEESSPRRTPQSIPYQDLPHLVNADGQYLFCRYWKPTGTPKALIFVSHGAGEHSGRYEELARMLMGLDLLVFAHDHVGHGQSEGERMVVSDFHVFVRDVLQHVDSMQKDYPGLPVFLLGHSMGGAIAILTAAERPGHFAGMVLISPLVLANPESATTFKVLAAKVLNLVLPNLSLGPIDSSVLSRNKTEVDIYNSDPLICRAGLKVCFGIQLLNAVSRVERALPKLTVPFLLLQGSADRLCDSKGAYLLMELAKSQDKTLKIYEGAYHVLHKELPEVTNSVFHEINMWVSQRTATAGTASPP
# rFAAH = target: T3, rFAAH (Rattus norvegicus, UniProt P97612); experiment: rFAAH inhibition (selectivity); format: biochemical
# T3 sequence (P97612 1-579): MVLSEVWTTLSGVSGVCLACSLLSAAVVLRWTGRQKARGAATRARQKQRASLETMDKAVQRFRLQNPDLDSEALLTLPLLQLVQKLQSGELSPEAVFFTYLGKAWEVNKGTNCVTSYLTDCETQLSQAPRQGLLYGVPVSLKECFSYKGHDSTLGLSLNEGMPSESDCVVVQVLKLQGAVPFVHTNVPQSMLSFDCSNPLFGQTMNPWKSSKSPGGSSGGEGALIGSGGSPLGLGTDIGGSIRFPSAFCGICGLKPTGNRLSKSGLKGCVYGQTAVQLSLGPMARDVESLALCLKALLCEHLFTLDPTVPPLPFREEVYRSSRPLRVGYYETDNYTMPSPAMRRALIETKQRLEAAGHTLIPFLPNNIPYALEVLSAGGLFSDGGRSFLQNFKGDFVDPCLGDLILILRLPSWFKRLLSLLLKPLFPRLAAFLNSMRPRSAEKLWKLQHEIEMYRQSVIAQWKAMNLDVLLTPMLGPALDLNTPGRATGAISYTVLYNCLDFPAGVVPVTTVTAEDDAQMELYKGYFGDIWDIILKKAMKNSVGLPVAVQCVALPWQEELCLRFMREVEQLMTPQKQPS
# recombinant rat NAAA = conditions: substrate heptadecenoylethanolamide, HEK293 cell lysate, LC/MS based assay; cited from earlier work
# hNAAA [7] = target: T1, hNAAA; design: method as in PMID 22040171; conditions: substrate of hNAAA; cited from earlier work
smiles,measurement,setting,value
"CN(C)C(=O)n1nnc(Cc2ccc(-c3ccccc3)cc2)n1 [AM6701, 5-((biphenyl-4-yl)methyl)-N,N-dimethyl-2H-tetrazole-2-carboxamide]",Covalent modification of hNAAA seen by MALDI-TOF MS of tryptic digest,hNAAA [1],carbamylation of the N-terminal cysteine
same,IC50,hNAAA [2],7.2 ± 2.5 nM
same,Recovery of enzyme activity after rapid dilution,hNAAA [3],no recovery of enzyme activity
same,Decrease of IC50 on extension of preincubation time to 120 min,"hNAAA [4]; hNAAA, data not presented",more than 50 fold
same,IC50,hNAAA [4],7.7 ± 0.2 nM
same,kinact,hNAAA [5],0.0007 s⁻¹
same,kinact/K I,hNAAA [5],55000 M⁻¹ s⁻¹
same,IC50,FAAH,1.2 nM
"CCCCCCCCCCCCCCCN=C=S [AM9023, 1-isothiocyanatopentadecane]",Covalent modification of hNAAA seen by MALDI-TOF MS of tryptic digest,hNAAA [1],identical
same,IC50,hNAAA [2],600 ± 130 nM
same,Recovery of enzyme activity after rapid dilution,hNAAA [3],fully recovered
same,Effect of longer pre-incubation on IC50,hNAAA [4]; hNAAA,unaffected
same,IC50,hNAAA [4],350 ± 70 nM
same,Type of inhibition (Lineweaver-Burk plot),hNAAA [6],competitive type inhibitor
same,IC50,hMGL,> 10000 nM
same,IC50,rFAAH,> 10000 nM
"O=C(N[C@H]1COC1=O)OCc1ccccc1 [N-Cbz-serine β-lactone, N-Benzyloxycarbonyl-L-serine β-lactone, reference compound]",Covalent modification of hNAAA seen by MALDI-TOF MS of tryptic digest,hNAAA [1],Cys126 modified by the inhibitor
same,IC50,hNAAA [2],1900 ± 500 nM
same,IC50,recombinant rat NAAA,2960 ± 300 nM
same,Recovery of enzyme activity after rapid dilution,hNAAA [3],slow regeneration of enzyme catalytic activity
same,IC50,hNAAA [4],1700 ± 200 nM
same,kinact,hNAAA [5],0.000383 s⁻¹
same,kinact/K I,hNAAA [5],290 M⁻¹ s⁻¹
"CCCCCCCCCCCCCCCC(=O)Nc1ccc2c(C)cc(=O)oc2c1 [PAMCA, N-(4-methylcoumarin)palmitamide]",Km,hNAAA [7],6.2 µM
"CCCCCCCCCCCCCCCC(=O)NCCO [PEA, N-palmitoylethanolamine]",Km,hNAAA [7],21 µM
